Assay results published in patent US4716171A (Etablissements Nativelle S.A., priority 1981, dated 1987).
Like-named read-outs stand apart in the source and are kept apart here.

Experiments:
arrhythmia = test: Test with aconitine (arrhythmia appearance time); type: in vivo, rats; conditions: for Appearance Time, ESV (ventricular extrasystoles): control 98; for Appearance Time, TV (ventricular tachycardium): control 112; for Appearance Time, FV (ventricular fibrillation): control 228; for Appearance Time, ESV (ventricular extrasystoles), %: vs control 98; for Appearance Time, TV (ventricular tachycardium), %: vs control 112
Source text: (§1) Antiarrhythmic activity in mice was observed by means of the Lawson test, using the method described by J. W. Lawson, J. Pharmacol. Exp. Therp., 160, 22-31 (1968) and Cr. Narcisse et al. Ann. Pharma. Fr., 37, 325-330 (1979), in rats by the test with aconitine of S. Witchitz et al. Coeur Med. Int., X(2), 281-286 (1971), and in dogs by the Harris test described in Circulation, 1, 1318 (1950). 3S-hydroxy-10,11-dihydroquinidine was used for each of these three tests.

ventricular arrhythmia = test: Harris test; type: in vivo, dogs; conditions: for % Protection / % Protection, Average: dogs, I.V.; for % Protection, Average: average of Exp. 1 and 2
Source text: as §1

[1] = Electrophysiological study in anesthetized dog (closed thorax, bipolar catheter-electrodes); type: in vivo
Procedure: The study was carried out on a dog anesthetized with pentobarbital, with a closed thorax, by means of bipolar catheter-electrodes introduced into the cardiac cavities by transcutaneous venous and arterial tracts.
In this manner and by means of a programmable stimulator, sinusal automaticity, intracardiac conduction times, and the effective and functional cardiac refractory periods can be measured.

[2] = parameters: species or system dogs; conditions: dog, in vivo, iv
Procedure: The parameters were recorded by means of: catheters connected to pressure sensors (arterial pressure, left ventricular pressure and its first dp/dt derivative); electromagnetic flowmeter on the aorta (aortic flow); electrocardiograph; strain gauge placed on the left ventricular myocardium (myocardiac contraction force).

[3] = tested on: anoxic ventricular fibrillation; test: Lawson test (antifibrillatory power); type: in vivo, mice
Source text: as §1
The Lawson test enables the study of the cardiac antifibrillatory power of the derivatives of the present invention. […] The efficacity dose 50 (ED50) indicated in Table 4 is the dose which protects half of the mice against anoxic ventricular fibrillation.

[4] = LD50 in rats (Lichfield and Wilcoxon method); conditions: rat, in vivo, male, oral
Source text: (§2) For example, the results obtained with 3S-hydroxy-10,11-dihydroquinidine in the form of the hydrochloride salt are shown in Table 1 below.

[5] = LD50 in mice (Lichfield and Wilcoxon method); conditions: mouse, in vivo
Source text: as §2

CC[C@@]1(O)CN2CC[C@H]1C[C@@H]2[C@@H](O)c1ccnc2ccc(OC)cc12 [3S-hydroxy-10,11-dihydroquinidine, 3S-Hydroxy-10,11-dihydroquinidine]
protective effect against arrhythmia (in words) (arrhythmia; compared with quinidine): greater than that of quinidine | activity in the test with aconitine (in words) (arrhythmia; compared with quinidine, quantitative level): considerably more active than quinidine | Appearance Time, ESV (ventricular extrasystoles) (arrhythmia; rats, I.V., 10 mg/kg): 208 min | Appearance Time, TV (ventricular tachycardium) (arrhythmia; rats, I.V., 10 mg/kg): 253 min | Appearance Time, FV (ventricular fibrillation) (arrhythmia; rats, I.V., 10 mg/kg): 504 min | Appearance Time, ESV (ventricular extrasystoles), % (arrhythmia; rats, I.V., 10 mg/kg): +112% | Appearance Time, TV (ventricular tachycardium), % (arrhythmia; rats, I.V., 10 mg/kg): +125% | Appearance Time, FV (ventricular fibrillation), % (arrhythmia; rats, I.V., 10 mg/kg, vs control 228): +121% | decrease in ventricular arrhythmia (in words) (ventricular arrhythmia; 6 mg/kg, compared with quinidine): greater with the compound of the present invention than with quinidine | % Protection (ventricular arrhythmia; 6 mg/kg, 1 h, Exp. 1): 65% | % Protection (ventricular arrhythmia; 6 mg/kg, 1 h, Exp. 2): 39% | % Protection, Average (ventricular arrhythmia; 6 mg/kg, 1 h): 52% | % Protection (ventricular arrhythmia; +10 mg/kg, 1 h, Exp. 1): 72% | % Protection (ventricular arrhythmia; +10 mg/kg, 1 h, Exp. 2): 42% | % Protection, Average (ventricular arrhythmia; +10 mg/kg, 1 h): 57% | % Protection (ventricular arrhythmia; +10 mg/kg, 2 h, Exp. 1): 97% | % Protection (ventricular arrhythmia; +10 mg/kg, 2 h, Exp. 2): 41% | % Protection, Average (ventricular arrhythmia; +10 mg/kg, 2 h): 69% | efficacity (in words) (ventricular arrhythmia; higher doses, compared with quinidine): comparable for higher doses | Cardiac Cycle, percentage of variation ([1]; 1 mg/kg): +4.5% | HV (HissPurkinje conduction), percentage of variation ([1]; 1 mg/kg): +10.8% | PREA (Effective auricular refractory period), percentage of variation ([1]; 1 mg/kg): +8% | PREV (Effective ventricular refractory period), percentage of variation ([1]; 1 mg/kg): -1.5% | PRFN (Functional nodal refractory period), percentage of variation ([1]; 1 mg/kg): 0% | QRS (Intraventricular conduction), percentage of variation ([1]; 1 mg/kg): +14.4% | QTc (Corrected repolarization time), percentage of variation ([1]; 1 mg/kg): +2.8% | SH (AuriculoHissian conduction), percentage of variation ([1]; 1 mg/kg): +1.7% | Cardiac Cycle, percentage of variation ([1]; 5 mg/kg): +5.1% | HV (HissPurkinje conduction), percentage of variation ([1]; 5 mg/kg): +20.9% | PREA (Effective auricular refractory period), percentage of variation ([1]; 5 mg/kg): +16% | PREV (Effective ventricular refractory period), percentage of variation ([1]; 5 mg/kg): +2.8% | PRFN (Functional nodal refractory period), percentage of variation ([1]; 5 mg/kg): +5.5% | QRS (Intraventricular conduction), percentage of variation ([1]; 5 mg/kg): +14.4% | QTc (Corrected repolarization time), percentage of variation ([1]; 5 mg/kg): +7% | SH (AuriculoHissian conduction), percentage of variation ([1]; 5 mg/kg): +3.8% | Cardiac Cycle, percentage of variation ([1]; 10 mg/kg): +14. % | HV (HissPurkinje conduction), percentage of variation ([1]; 10 mg/kg): +32.8% | PREA (Effective auricular refractory period), percentage of variation ([1]; 10 mg/kg): +23.7% | PREV (Effective ventricular refractory period), percentage of variation ([1]; 10 mg/kg): +6.5% | PRFN (Functional nodal refractory period), percentage of variation ([1]; 10 mg/kg): +12.6% | QRS (Intraventricular conduction), percentage of variation ([1]; 10 mg/kg): +22% | QTc (Corrected repolarization time), percentage of variation ([1]; 10 mg/kg): +6% | SH (AuriculoHissian conduction), percentage of variation ([1]; 10 mg/kg): +15% | cardiac frequency (in words) ([1]; compared with quinidine): slows cardiac frequency like quinidine | cardiac refractory periods, level of the auricles (in words) ([1]; compared with quinidine): greater than those of quinidine | cardiac refractory periods, ventricular and nodal stage (in words) ([1]; compared with quinidine): effects equivalent to those of quinidine | conduction in the His-Purkinje system (in words) ([1]; compared with quinidine): effects greater than those of quinidine | conduction between the auricles and the trunk of the His fasciculus (in words) ([1]; dog, in vivo): slightly changes conduction | cardiac flow (in words) [2]: no significant change before a cumulative dose of 20 mg/kg is reached | cardiac frequency (in words) [2]: not significantly modified before a cumulative dose of 20 mg/kg is reached | myocardiac contraction force (in words) [2]: no change | systolic arterial pressure (in words) [2]: diminishes progressively with the dose, the effects only becoming considerable for a cumulative dose greater than 10 mg/kg | Cardiac Flow, variation in relation to initial value ([2]; 0.5 mg/kg): -50 ± 50 mL/min | Cardiac Frequency, variation in relation to initial value ([2]; 0.5 mg/kg): -2 ± 6 beats/min. | Force of Contractions of the Myocardium, variation in relation to initial value ([2]; 0.5 mg/kg): -3 ± 3 g | Systolic Arterial Pressure, variation in relation to initial value ([2]; 0.5 mg/kg): -11 ± 4 mmHg | Total Peripheral Resistance, variation in relation to initial value ([2]; 0.5 mg/kg): -382 ± 180 | Cardiac Flow, variation in relation to initial value ([2]; 4 mg/kg): -90 ± 143 mL/min | Cardiac Frequency, variation in relation to initial value ([2]; 4 mg/kg): -5 ± 2 beats/min. | Force of Contractions of the Myocardium, variation in relation to initial value ([2]; 4 mg/kg): 0 ± 1 g | Systolic Arterial Pressure, variation in relation to initial value ([2]; 4 mg/kg): -20 ± 5 mmHg | Total Peripheral Resistance, variation in relation to initial value ([2]; 4 mg/kg): -457 ± 277 | Cardiac Flow, variation in relation to initial value ([2]; 5 mg/kg): -316 ± 412 mL/min | Cardiac Frequency, variation in relation to initial value ([2]; 5 mg/kg): -3 ± 16 beats/min. | Force of Contractions of the Myocardium, variation in relation to initial value ([2]; 5 mg/kg): 2 ± 1 g | Systolic Arterial Pressure, variation in relation to initial value ([2]; 5 mg/kg): -23 ± 7 mmHg | Total Peripheral Resistance, variation in relation to initial value ([2]; 5 mg/kg): -376 ± 227 | Cardiac Flow, variation in relation to initial value ([2]; 10 mg/kg): -775 ± 498 mL/min | Cardiac Frequency, variation in relation to initial value ([2]; 10 mg/kg): -15 ± 13 beats/min. | Force of Contractions of the Myocardium, variation in relation to initial value ([2]; 10 mg/kg): 8 ± 1 g | Systolic Arterial Pressure, variation in relation to initial value ([2]; 10 mg/kg): -36 ± 13 mmHg | Total Peripheral Resistance, variation in relation to initial value ([2]; 10 mg/kg): -91 | ED50 ([3]; Mus musculus, ip, mice, I.P., read-out: ED 50 (dose which protects half of the mice against anoxic ventricular fibrillation)): 72.5 mg/kg | antifibrillatory efficacity (in words) ([3]; compared with quinidine): comparable to that of quinidine

CC[C@@]1(O)CN2CC[C@H]1C[C@@H]2[C@@H](O)c1ccnc2ccc(OC)cc12 [3S-hydroxy-10,11-dihydroquinidine]
LD50 [4]: 640 mg/kg | LD50 ([5]; ip, mice, female, IP, read-out: LD50): 180 mg/kg | LD50 ([5]; ip, mice, male, IP, read-out: LD50): 280 mg/kg | LD50 ([5]; iv, mice, female, IV, read-out: LD50): 105 mg/kg | LD50 ([5]; iv, mice, male, IV, read-out: LD50): 120 mg/kg | LD50 ([5]; po, mice, female, oral, read-out: LD50): 900 mg/kg | LD50 ([5]; po, mice, male, oral, read-out: LD50): 975 mg/kg

C=C[C@H]1C[N@@]2CC[C@H]1C[C@@H]2[C@@H](O)c1ccnc2ccc(OC)cc12 [Quinidine, quinidine, reference compound]
LD50 ([5]; ip, mice (male and female), intraperitoneal, comparison, read-out: LD50 (average values)): 225 to 235 mg/kg | Appearance Time, ESV (ventricular extrasystoles) (arrhythmia; rats, I.V., 10 mg/kg): 150 min | Appearance Time, TV (ventricular tachycardium) (arrhythmia; rats, I.V., 10 mg/kg): 171 min | Appearance Time, FV (ventricular fibrillation) (arrhythmia; rats, I.V., 10 mg/kg): 474 min | Appearance Time, ESV (ventricular extrasystoles), % (arrhythmia; rats, I.V., 10 mg/kg): +53% | Appearance Time, TV (ventricular tachycardium), % (arrhythmia; rats, I.V., 10 mg/kg): +52% | % Protection (ventricular arrhythmia; quinidine, 6 mg/kg, 1 h): 21% | % Protection (ventricular arrhythmia; quinidine, +5 mg, 1 h): 55% | % Protection (ventricular arrhythmia; quinidine, +5 mg, 2 h): 52% | Cardiac Cycle, percentage of variation ([1]; 1 mg/kg): +2.7% | HV (HissPurkinje conduction), percentage of variation ([1]; 1 mg/kg): 0% | PREA (Effective auricular refractory period), percentage of variation ([1]; 1 mg/kg): +2% | PREV (Effective ventricular refractory period), percentage of variation ([1]; 1 mg/kg): +3.3% | PRFN (Functional nodal refractory period), percentage of variation ([1]; 1 mg/kg): +3% | QRS (Intraventricular conduction), percentage of variation ([1]; 1 mg/kg): 0% | QTc (Corrected repolarization time), percentage of variation ([1]; 1 mg/kg): +1.8% | SH (AuriculoHissian conduction), percentage of variation ([1]; 1 mg/kg): +3.5% | Cardiac Cycle, percentage of variation ([1]; 5 mg/kg): +5.1% | HV (HissPurkinje conduction), percentage of variation ([1]; 5 mg/kg): +8.7% | PREA (Effective auricular refractory period), percentage of variation ([1]; 5 mg/kg): +3.5% | PREV (Effective ventricular refractory period), percentage of variation ([1]; 5 mg/kg): +6.5% | PRFN (Functional nodal refractory period), percentage of variation ([1]; 5 mg/kg): +5% | QRS (Intraventricular conduction), percentage of variation ([1]; 5 mg/kg): 0% | QTc (Corrected repolarization time), percentage of variation ([1]; 5 mg/kg): 0% | SH (AuriculoHissian conduction), percentage of variation ([1]; 5 mg/kg): +7.2% | Cardiac Cycle, percentage of variation ([1]; 10 mg/kg): +9.2% | HV (HissPurkinje conduction), percentage of variation ([1]; 10 mg/kg): +17.7% | PREA (Effective auricular refractory period), percentage of variation ([1]; 10 mg/kg): +14.4% | PREV (Effective ventricular refractory period), percentage of variation ([1]; 10 mg/kg): +8.5% | PRFN (Functional nodal refractory period), percentage of variation ([1]; 10 mg/kg): +9% | QRS (Intraventricular conduction), percentage of variation ([1]; 10 mg/kg): 0% | QTc (Corrected repolarization time), percentage of variation ([1]; 10 mg/kg): +1.5% | SH (AuriculoHissian conduction), percentage of variation ([1]; 10 mg/kg): +10.5%
